Experimental data from the NIST ThermoML archive (doi:10.1021/je900596d).

Settings: 348.16 K, Liquid, Vibrating tube method

FC(F)=C(F)C(F)(F)F [hexafluoropropene]
Settings	mass density [kg/m3]
2547.3 kPa	963.99
2549.5 kPa	964.46
2554.5 kPa	964.95
2561 kPa	965.66
2568.5 kPa	966.39
2574.8 kPa	967.01
2581.7 kPa	967.68
2588.5 kPa	968.36
2595 kPa	968.97
2601.2 kPa	969.69
2614.7 kPa	970.9
2627.6 kPa	972.33
2633.8 kPa	972.9
2640.7 kPa	973.53
2654.7 kPa	974.76
2667.6 kPa	976.02
2680.1 kPa	977.1
2693.1 kPa	978.18
2706.1 kPa	979.32
2718.8 kPa	980.44
2730.9 kPa	981.5
2744.5 kPa	982.55
2756.9 kPa	983.71
2770.2 kPa	984.59
2782.7 kPa	985.9
2796.7 kPa	986.93
2809.4 kPa	987.97
2835.1 kPa	989.69
2847.5 kPa	990.63
2861.9 kPa	991.98
2875.4 kPa	992.69
2888.5 kPa	993.69
2902.4 kPa	994.77
2923.1 kPa	996.32
2943.1 kPa	997.63
2969.1 kPa	999.28
2994.8 kPa	1001.06
3015.4 kPa	1002.63
3036.5 kPa	1004.18
3061.5 kPa	1005.54
3081.9 kPa	1006.76
3102.2 kPa	1008.02
3129.1 kPa	1009.6
3135.2 kPa	1009.88
3142.1 kPa	1010.13
3154.2 kPa	1010.88
3176.2 kPa	1012.35
3202.5 kPa	1013.88
3223.6 kPa	1015.07
3244.1 kPa	1016.31
3266.6 kPa	1017.56
3287 kPa	1018.73
3310.2 kPa	1020.02
3316.2 kPa	1020.28
3323.1 kPa	1020.54
3330.6 kPa	1020.95
3337.3 kPa	1021.47
3343.7 kPa	1021.72
3351.1 kPa	1022.04
3359.3 kPa	1022.61
3365.4 kPa	1022.8
3373.8 kPa	1023.35
3380 kPa	1023.59
3386.2 kPa	1023.86
3392.5 kPa	1024.46
3400.2 kPa	1024.64
3423.6 kPa	1025.65
